How the values were obtained:
[1] = tested on: C. elegans; experiment: C. elegans lifespan analysis; format: in vivo, Caenorhabditis elegans; conditions: for mean lifespan: 8 mM; for effect on lifespan of adult C. elegans (in words): adult worms, metabolites at 8 mM; for lifespan of subjects (in words): experiments similar to those for α-KG and 2-HG compounds, data not shown
Description: Lifespan assays were conducted at 20° C. on solid nematode growth media (NGM) using standard protocols and were replicated in at least two independent experiments. […] All compounds were mixed into the NGM media after autoclaving and before solidification of the media. Assay plates were seeded with OP50 (or a designated RNAi feeding clone, see below). Worms were moved to new assay plates every 4 days (to ensure sufficient food was present at all times and to reduce the risk of mold contamination). […] For analysis concerning mutant strains, the corresponding parent strain was used as a control in the same experiment. […]
Lifespan data is provided in FIG. 13, including sample sizes. The sample size was chosen on the basis of standards done in the field in published manuscripts. No statistical method was used to predetermine the sample size. Animals were assigned randomly to the experimental groups. […] Lifespan data were analyzed using GraphPad Prism; P-values were calculated using the log-rank (Mantel-Cox) test.

[2] = tested on: mTOR; experiment: Assay for mammalian TOR (mTOR) pathway activity; format: cell-based, human; conditions: U87 cells
From the text: Specific antibodies used: P-S6K T389 (Cell Signaling Technology, 9234), S6K (Cell Signaling Technology, 9202S), P-4E-BP1 S65 (Cell Signaling Technology, 9451S), 4E-BP1 (Cell Signaling Technology, 9452S), P-AKT S473 (Cell Signaling Technology, 4060S), AKT (Cell Signaling Technology, 4691S), P-ULK1 S757 (Cell Signaling Technology, 6888), ULK1 (Cell Signaling Technology, 4773S), and GAPDH (Santa Cruz Biotechnology, 25778).

[3] = tested on: C. elegans; experiment: Assay for autophagy in C. elegans (GFP::LGG-1 puncta); format: in vivo, Caenorhabditis elegans
Description: Statistical analysis was performed using Microsoft Excel (t-test, two-tailed, two-sample unequal variance).

[4] = tested on: U87 cells; experiment: Assay for ATP levels in U87 cells; format: cell-based, human; conditions: mitochondrial oxidative phosphorylation conditions, 2 hours
Description: For 2-HG experiments, U87 cells were seeded in 96-well plates at 2×10^4 cells per well and treated with indicated compound for 2 hours in triplicate. ATP levels were measured using the CellTiter-Glo luminescent ATP assay (Promega, G7572); luminescence was read using Analyst HT (Molecular Devices). […] Statistical analysis was performed using GraphPad Prism (unpaired t-test).

[5] = tested on: AMPK; experiment: AMPK (T172) phosphorylation by Western blotting; format: cell-based, human; conditions: WI-38 cells; higher concentration of octyl α-KG
Description: Western blotting was performed with specific antibodies against P-AMPK T172 (Cell Signaling Technology, 2535S) and AMPK (Cell Signaling Technology, 2603S). […] Number of GFP::LGG-1 containing puncta was quantitated using ImageJ. Bars indicate the mean. […] HEK-293 (Panel d) or HeLa (Panel e) cells were lysed in M-PER buffer (Thermo Scientific, 78501) with the addition of protease inhibitors (Roche, 11836153001) and phosphatase inhibitors (50 mM NaF, 10 mM β-glycerophosphate, 5 mM sodium pyrophosphate, 2 mM Na3VO4). Protein concentration of the lysate was measured by BCA Protein Assay kit (Pierce, 23227). […] Pronase (Roche, 10165921001) digestions were performed for 20 minutes at room temperature, and stopped by adding SDS loading buffer and immediately heating at 95° C. for 5 minutes (for Panel d) or 70° C. for 10 minutes (for Panel e). Samples were subjected to SDS-PAGE on 4-12% Bis-Tris gradient gel (Invitrogen, NP0322BOX) and Western blotted with specific antibodies against ATP5B (Santa Cruz, sc58618), mTOR (Cell Signaling Technology, 2972), or GAPDH (Ambion, AM4300). ImageJ was used to quantify the mTOR/GAPDH and ATP5B/GAPDH ratios.

[6] = target: T1, ATP5B (Homo sapiens, UniProt P06576); experiment: DARTS (drug affinity responsive target stability) with Western blotting; format: binding; conditions: human cell lysates, Pronase digestion
T1 construct: HeLa cells were lysed in M-PER buffer; endogenous in cells; host or cells: HeLa (alpha-KG); U87 (2-HG)
T1 sequence (P06576 48-529): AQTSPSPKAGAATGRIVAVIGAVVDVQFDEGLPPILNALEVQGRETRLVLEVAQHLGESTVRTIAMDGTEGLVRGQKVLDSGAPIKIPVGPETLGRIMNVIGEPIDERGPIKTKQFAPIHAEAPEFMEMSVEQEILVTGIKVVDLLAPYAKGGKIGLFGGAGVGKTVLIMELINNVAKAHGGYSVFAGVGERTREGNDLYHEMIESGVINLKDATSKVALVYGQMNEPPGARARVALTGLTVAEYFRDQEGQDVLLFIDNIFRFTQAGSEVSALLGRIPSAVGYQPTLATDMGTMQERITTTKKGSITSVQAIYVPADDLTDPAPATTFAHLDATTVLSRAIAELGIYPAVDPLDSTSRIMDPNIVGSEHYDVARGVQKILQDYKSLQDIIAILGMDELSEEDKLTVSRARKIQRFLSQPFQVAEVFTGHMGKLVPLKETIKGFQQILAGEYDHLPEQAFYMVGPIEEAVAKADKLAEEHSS
Description: Target identification using DARTS was conducted in accordance with methods know in the art. […] The resulting digests were separated by SDS-PAGE and visualized using SYPRO Ruby Protein Gel Stain (Invitrogen, S12000).
GAPDH (Ambion, AM4300) was used as a negative control.
For 2-HG experiments, DARTS was performed as described above.

[7] = target: T2, ATP synthase (Complex V) (Mus musculus, UniProt P56480); experiment: Mitochondrial coupling assay / respiratory control ratio; format: biochemical; conditions: mouse liver mitochondria
T2 construct: Mitochondria were isolated from mouse liver as described above; from tissue; host or cells: isolated mouse liver mitochondria
Description: Mitochondrial RCR was analyzed using isolated mouse liver mitochondria (see Brand, et al. Biochem J 435, 297-312 (2011) and references therein). Mitochondria were isolated from mouse liver as described above. The final mitochondrial pellet was resuspended in 30 μl of MAS buffer (70 mM sucrose, 220 mM mannitol, 10 mM KH2PO4, 5 mM MgCl2, 2 mM HEPES, 1 mM EGTA, and 0.2% fatty acid free BSA, pH 7.2).
Isolated mitochondrial respiration was measured by running coupling and electron flow assays as described (Rogers, et al. PLoS One 6, e21746 (2011)). For the coupling assay, 20 μg of mitochondria in complete MAS buffer (MAS buffer supplemented with 10 mM succinate and 2μM rotenone) were seeded into a XF24 Seahorse plate by centrifugation at 2,000×g for 20 minutes at 4° C. […] Mitochondrial respiration begins in a coupled State 2; State 3 is initiated by 2 mM ADP; State 4o (oligomycin-insensitive, i.e., Complex V-independent) is induced by 2.5 μM oligomycin and State 3u (FCCP uncoupled maximal respiratory capacity) by 4 μM FCCP. Finally, 1.5 μg/ml antimycin A was injected at the end of the assay.

[8] = tested on: electron transport chain (Complex I, Complex II, Complex IV); experiment: Mitochondrial electron flow assay; format: biochemical, mouse
Description: Mitochondria were isolated from mouse liver as described above.
For the electron flow assay, the MAS buffer was supplemented with 10 mM sodium pyruvate (Complex I substrate), 2 mM malate (Complex II inhibitor), and 4 μM FCCP, and the mitochondria are seeded the same way as described for the coupling assay. After basal readings, the sequential injections were as follows: 2 μM rotenone (Complex I inhibitor), 10 mM succinate (Complex II substrate), 4 μM antimycin A (Complex III inhibitor), and 10 mM/100 μM ascorbate/tetramethylphenylenediamine (Complex IV substrate).

[9] = tested on: U87 cells
Description: Cells were cultured for 24 hours, rinsed with PBS, and medium containing [1,2-^13C]glucose (1 g/L) added. […] Cells were scraped off, transferred to an Eppendorf tube, and 10 nmol norvaline as well as 400 ml chloroform added to each sample. For the metabolite extraction, samples were vortexed for 5 minutes on ice, spun down, and the aqueous layer transferred into a glass vial and dried. Metabolites were resuspended in 70% ACN, and 5 ml sample loaded onto a Phenomenex Luna 3u NH2 100A (150×2.0 mm) column. The chromatographic separation was performed on an UltiMate 300RSLC (Thermo Scientific) with mobile phases A (5 mM NH4AcO, pH 9.9) and B (ACN) and a flow rate of 300 ml / minutes. […] TraceFinder 3.1 (Thermo Scientific) was used to quantify metabolites as area under the curve using retention time and accurate mass measurements (≤3 ppm). Relative amounts of metabolites were calculated by summing up all isotopomers of a given metabolite.

[10] = tested on: U87 cells; experiment: Oxygen consumption rate in U87 cells (2-HG experiments); format: cell-based, human
Description: For 2-HG experiments, OCR and ECAR measurements were made using a Seahorse XF-24 analyzer (Seahorse Bioscience) (Wu, et al. Am J Physiol Cell Physiol 292, C125-136 (2007)). U87 cells were seeded in Seahorse XF-24 cell culture microplates at 50,000 cells per well in DMEM supplemented with 10% FBS and either 10 mM glucose or 10 mM galactose, and incubated 0/N at 37° C. in 5% CO2. […] Cells were washed in unbuffered DMEM (pH 7.4, 10 mM glucose) immediately prior to measurement, and maintained in this buffer with indicated concentrations of compound. OCR or ECAR were measured 3 times under basal conditions and normalized to protein concentration per well. Statistical analysis was performed using GraphPad Prism (unpaired t-test, two-tailed, two-sample unequal variance).

[11] = tested on: U87 cells; experiment: Cell growth and viability assays in U87 cells; format: cell-based, human
Description: IDH1(R132H) mutant or IDH1(WT) expressing U87 cells were as reported (Li, et al. Neuro Oncol 15, 57-68). […] All the cells were cultured at 37° C. and 5% CO2. Cells were transfected with indicated siRNA using Thermo Scientific DharmaFECT Transfection Reagent 1 by following the manufacturer's instructions.
Cells were seeded in 12-well plates and after overnight incubation were treated with indicated concentrations of each compound. After harvesting, cells were stained by Acridine Orange (AO) and DAPI. Cell number and viability were measured based on AO and DAPI fluorescence measured by NC3000 (Chemometec) following the manufacturer's instructions.

[12] = tested on: ADP import into the mitochondria; experiment: Assay for ADP import; format: biochemical; conditions: mouse liver mitochondria, 600 μM; (R) P=0.4237, (S) P=0.1623
Description: Freshly prepared mice liver mitochondria were suspended at 1 μg/μl in medium consisting of 220 mM mannitol, 70 mM sucrose, 2 mM HEPES, 2.74 μM antimycin A, 5 μM rotenone, 1 mM
EGTA, and 10 mM potassium phosphate buffer, pH 7.4. The mitochondria suspension was incubated with designated drug for 30 minutes in 37° C. After incubation, the suspension was transferred to ice for 10 minutes incubation. Afterwards, 100 μM [^3H]ADP (specific radioactivity, 185 kBq/pmol) was added, and the mixture was immediately vortexed and incubated for 20 seconds on ice. The reaction was terminated by addition of 10 μM carboxyatractyloside, and the mixture was centrifuged at 10,000 g for 10 minutes at 4° C. After centrifuge, the supernatant was collected for reading and the pellet was washed twice with the same medium supplemented with 10 μM carboxyatractyloside. After washing, the pellet was lysed by the addition of 0.2 ml of 1% SDS. The radioactivity of the lysate and supernatant was determined by TRI-CARB 2300 TR liquid scintillation analyzer. The ADP-ATP translocation rate was determined by the ratio of the pellet versus the sum reading of the pellet and supernatant.

CSCC[C@H](N)C(=O)O [Met]
mean lifespan ([1]; FIG. 14 Panel B, vehicle 14.0): 14.7 days of adulthood

CC[C@H]1/C=C/C=C/C[C@@H](C)[C@H](O)[C@@](C)(O)C(=O)[C@@H](C)[C@H](O)[C@@H](C)C(=O)[C@@H](C)[C@H](O)[C@@H](C)/C=C/C(=O)O[C@@H]2[C@H](C)[C@H](CC1)O[C@]1(CC[C@H](C)[C@H](C[C@@H](C)O)O1)[C@H]2C [oligomycin, reference compound]
increase of mean lifespan of N2 worms ([1]; 40 μM, from young adult stage): 32.3%
effect on lifespan of adult C. elegans (in words) [1]: extends the lifespan
phosphorylation of mTOR substrates [2]: decreased
autophagy (GFP::LGG-1 puncta) ([3]; CeTOR(RNAi) worms, oligomycin): does not augment
autophagy (GFP::LGG-1 puncta) ([3]; L3 epidermis, oligomycin 40, α-KG 8 mM, versus vehicle): significantly higher
ATP content [4]: decreased
P-AMPK (T172) [5]: increased

N[C@H](CCC(=O)O)C(=O)O [D-glutamate]
lifespan of subjects (in words) [1]: increases the lifespan

CC(C)C[C@H](N)C(=O)O [Leu]
mean lifespan ([1]; FIG. 14 Panel B, vehicle 14.0): 13.2 days of adulthood

O=C(O)CC[C@H](O)C(=O)O [(S)-2-HG, 2-hydroxyglutaric acid]
mean lifespan ([1]; FIG. 14 Panel C, vehicle 15.7): 20.7 days of adulthood
effect on lifespan of adult C. elegans (in words) [1]: increase the lifespan
binding to ATP5B by DARTS [6]: bind

CCCCCCCCOC(=O)C(O)CCC(=O)O (stereo not drawn) [octyl 2-HG]
state 3 respiration ([7]; 600 μM, octanol vehicle): decreases
state 4o or 3u respiration ([7]; 600 μM, octanol vehicle): not
Complex I, Complex II, or Complex IV respiration ([8]; 30 minute treatment, 600 μM): No difference
ATP content [4]: decreased
accumulation of 2-HG in treated cells [9]: 20-100 fold
ATP synthase dependent (oligomycin sensitive) oxygen consumption rate ([10]; U87 cells): decreased
respiration as indicated by OCR ([10]; U87 cells in glucose media): decreased
growth rate ([11]; glucose medium, to a lesser extent, not shown): reduced
growth rate ([11]; glucose-free medium, 400 μM and 800 μM): decreased growth rate

CCCCCCCCOC(=O)CCC(=O)C(=O)O [5-octyl α-KG, 5-(Octyloxy)-2,5-dioxopentanoic acid]
coupling assay, 1-octyl versus 5-octyl ester [7]: identical results
electron flow assay, 1-octyl versus 5-octyl ester ([8]; mouse liver mitochondria): identical results

O=C([O-])CCC(=O)C(=O)[O-].[Na+].[Na+] [Na2α-KG]
mean lifespan ([1]; FIG. 14 Panel C, vehicle 15.7): 21.5 days of adulthood

CCCCCCCCOC(=O)[C@@H](O)CCC(=O)O [octyl (S)-2-HG, 1-Octyl (S) 2-hydroxypentanedioate]
ADP import [12]: does not affect
viability upon glucose starvation ([11]; 400 μM and 800 μM): decreased

O=C(O)CC[C@@H](O)C(=O)O [(R)-2-HG, 2-hydroxyglutaric acid]
mean lifespan ([1]; FIG. 14 Panel B, vehicle 14.0): 20.0 days of adulthood
effect on lifespan of adult C. elegans (in words) [1]: increase the lifespan
binding to ATP5B by DARTS [6]: bind

CCCCCCCCOC(=O)[C@H](O)CCC(=O)O [octyl (R)-2-HG, 1-Octyl (R) 2-hydroxypentanedioate]
ADP import [12]: does not affect
viability upon glucose starvation ([11]; 400 μM and 800 μM): decreased

N[C@@H](CCC(=O)O)C(=O)O [L-glutamate]
lifespan of subjects (in words) [1]: increases the lifespan
